The numbers were not newly measured in US12029741B1, “5 beta dihydrotestosterone pharmaceutical formulations and related methods” (priority 2021, dated 2024), which cites them from elsewhere.

For one series, the system named is Vascular Vessels. The following applies: result in words.
For series [1] the following is noted: transdermal treatment; called an estimate.

`C[C@]12CCC(=O)C[C@H]1CC[C@@H]1[C@@H]2CC[C@]2(C)[C@@H](O)CC[C@@H]12` [5β-DHT, 17β-hydroxy-5β-androstan-3-one]: the “efficacy as a vasodilator compared with testosterone” value with Vascular Vessels is listed as “more efficacious and/or potent than testosterone”.
As for `C[C@]12CC[C@H]3[C@@H](CCC4=CC(=O)CC[C@@]43C)[C@@H]1CC[C@@H]2O` [testosterone], the terminal half-life in series [1] is 1.29 h.
For the molecule `C[C@]12CCC(=O)C[C@@H]1CC[C@@H]1[C@@H]2CC[C@]2(C)[C@@H](O)CC[C@@H]12` [5α-DHT, 5α-dihydrotestosterone], in the series on Vascular Vessels, the “efficacy as a vasodilator compared with testosterone” value was “less efficacious than testosterone”. Also, the terminal half-life in series [1] was 2.83 h.
